Measured values: patent US20250228835A1, “PYRIDINYLOXYPYRIDINES AND RELATED COMPOUNDS AND THEIR USE IN TREATING MEDICAL CONDITIONS” (Rectify Pharmaceuticals, Inc., priority 2024, published 2025)

Assays:
ABCB4 WT = target: T1, ABCB4 WT (Homo sapiens, UniProt P21439); assay: ABCB4 WT assay: HiBit protein expression; assay type: cell-based; conditions: HEK-293 cells stably expressing HiBit-tagged ABCB4 WT; 24 h treatment; top concentration 30 μM; read-out: ABCB4 WT EC50, Emax
T1 construct: expressed in transfected cells
How it was run: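 HEK-293 cells stably expressing HiBit-tagged human ABCB4 WT, treated 24 h at 37 °C with 11-dose 3-fold dilutions, top final 30 μM in 0.3% DMSO. HiBit lytic reagent luminescence read after 1 h at 25 °C; Emax and EC50 derived.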

ABCA4 P1380L = target: T2, ABCA4 P1380L (Homo sapiens, UniProt P78363, P1380L); assay: A4 correction dose-response assay: ABCA4 P1380L HiBit protein expression; assay type: cell-based; conditions: HEK-293 cells stably expressing HiBit-tagged ABCA4 P1380L; 24 h treatment; top concentration 30 μM; read-out: ABCA4 P1380L EC50, Emax
T2 construct: expressed in transfected cells
How it was run: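 Cells transfected with HiBit-tagged human ABCA4 P1380L cDNA were treated for 24 h at 37°C with an eleven-point dilution series (top final 30 μM, 0.3% DMSO).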

T1 sequence (P21439 whole entry): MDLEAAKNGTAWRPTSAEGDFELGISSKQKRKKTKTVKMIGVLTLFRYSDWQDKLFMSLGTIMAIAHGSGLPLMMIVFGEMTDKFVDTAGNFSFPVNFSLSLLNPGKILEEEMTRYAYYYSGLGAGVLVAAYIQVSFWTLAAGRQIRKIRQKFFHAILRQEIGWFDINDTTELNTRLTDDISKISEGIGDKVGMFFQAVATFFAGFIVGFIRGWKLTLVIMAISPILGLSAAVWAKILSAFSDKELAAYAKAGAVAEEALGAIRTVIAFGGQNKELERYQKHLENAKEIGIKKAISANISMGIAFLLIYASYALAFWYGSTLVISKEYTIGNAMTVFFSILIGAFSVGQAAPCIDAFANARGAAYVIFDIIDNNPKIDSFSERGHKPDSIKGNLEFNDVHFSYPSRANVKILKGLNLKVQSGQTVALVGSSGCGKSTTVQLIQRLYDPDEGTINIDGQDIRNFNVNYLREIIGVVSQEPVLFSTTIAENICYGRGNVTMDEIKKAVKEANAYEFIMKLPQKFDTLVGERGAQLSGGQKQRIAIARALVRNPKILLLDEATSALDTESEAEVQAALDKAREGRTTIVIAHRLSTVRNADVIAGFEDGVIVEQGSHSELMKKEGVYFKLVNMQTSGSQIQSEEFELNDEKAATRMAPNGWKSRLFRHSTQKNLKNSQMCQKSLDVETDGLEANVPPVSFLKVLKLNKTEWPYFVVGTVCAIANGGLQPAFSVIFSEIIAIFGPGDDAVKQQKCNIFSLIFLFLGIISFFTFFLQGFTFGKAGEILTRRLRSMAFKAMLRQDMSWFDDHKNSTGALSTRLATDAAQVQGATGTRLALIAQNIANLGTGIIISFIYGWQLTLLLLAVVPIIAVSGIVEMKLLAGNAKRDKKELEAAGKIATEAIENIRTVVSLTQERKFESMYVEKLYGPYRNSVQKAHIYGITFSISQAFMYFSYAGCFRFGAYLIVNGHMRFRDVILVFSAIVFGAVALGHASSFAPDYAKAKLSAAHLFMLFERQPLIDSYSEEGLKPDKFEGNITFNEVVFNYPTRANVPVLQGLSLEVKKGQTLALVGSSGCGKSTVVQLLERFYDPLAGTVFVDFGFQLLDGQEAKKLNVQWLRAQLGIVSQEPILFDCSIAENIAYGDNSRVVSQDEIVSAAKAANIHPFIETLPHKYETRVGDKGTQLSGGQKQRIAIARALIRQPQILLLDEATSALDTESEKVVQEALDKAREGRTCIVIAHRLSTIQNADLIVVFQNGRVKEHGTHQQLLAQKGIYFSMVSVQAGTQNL
T2 sequence (P78363 whole entry P1380L): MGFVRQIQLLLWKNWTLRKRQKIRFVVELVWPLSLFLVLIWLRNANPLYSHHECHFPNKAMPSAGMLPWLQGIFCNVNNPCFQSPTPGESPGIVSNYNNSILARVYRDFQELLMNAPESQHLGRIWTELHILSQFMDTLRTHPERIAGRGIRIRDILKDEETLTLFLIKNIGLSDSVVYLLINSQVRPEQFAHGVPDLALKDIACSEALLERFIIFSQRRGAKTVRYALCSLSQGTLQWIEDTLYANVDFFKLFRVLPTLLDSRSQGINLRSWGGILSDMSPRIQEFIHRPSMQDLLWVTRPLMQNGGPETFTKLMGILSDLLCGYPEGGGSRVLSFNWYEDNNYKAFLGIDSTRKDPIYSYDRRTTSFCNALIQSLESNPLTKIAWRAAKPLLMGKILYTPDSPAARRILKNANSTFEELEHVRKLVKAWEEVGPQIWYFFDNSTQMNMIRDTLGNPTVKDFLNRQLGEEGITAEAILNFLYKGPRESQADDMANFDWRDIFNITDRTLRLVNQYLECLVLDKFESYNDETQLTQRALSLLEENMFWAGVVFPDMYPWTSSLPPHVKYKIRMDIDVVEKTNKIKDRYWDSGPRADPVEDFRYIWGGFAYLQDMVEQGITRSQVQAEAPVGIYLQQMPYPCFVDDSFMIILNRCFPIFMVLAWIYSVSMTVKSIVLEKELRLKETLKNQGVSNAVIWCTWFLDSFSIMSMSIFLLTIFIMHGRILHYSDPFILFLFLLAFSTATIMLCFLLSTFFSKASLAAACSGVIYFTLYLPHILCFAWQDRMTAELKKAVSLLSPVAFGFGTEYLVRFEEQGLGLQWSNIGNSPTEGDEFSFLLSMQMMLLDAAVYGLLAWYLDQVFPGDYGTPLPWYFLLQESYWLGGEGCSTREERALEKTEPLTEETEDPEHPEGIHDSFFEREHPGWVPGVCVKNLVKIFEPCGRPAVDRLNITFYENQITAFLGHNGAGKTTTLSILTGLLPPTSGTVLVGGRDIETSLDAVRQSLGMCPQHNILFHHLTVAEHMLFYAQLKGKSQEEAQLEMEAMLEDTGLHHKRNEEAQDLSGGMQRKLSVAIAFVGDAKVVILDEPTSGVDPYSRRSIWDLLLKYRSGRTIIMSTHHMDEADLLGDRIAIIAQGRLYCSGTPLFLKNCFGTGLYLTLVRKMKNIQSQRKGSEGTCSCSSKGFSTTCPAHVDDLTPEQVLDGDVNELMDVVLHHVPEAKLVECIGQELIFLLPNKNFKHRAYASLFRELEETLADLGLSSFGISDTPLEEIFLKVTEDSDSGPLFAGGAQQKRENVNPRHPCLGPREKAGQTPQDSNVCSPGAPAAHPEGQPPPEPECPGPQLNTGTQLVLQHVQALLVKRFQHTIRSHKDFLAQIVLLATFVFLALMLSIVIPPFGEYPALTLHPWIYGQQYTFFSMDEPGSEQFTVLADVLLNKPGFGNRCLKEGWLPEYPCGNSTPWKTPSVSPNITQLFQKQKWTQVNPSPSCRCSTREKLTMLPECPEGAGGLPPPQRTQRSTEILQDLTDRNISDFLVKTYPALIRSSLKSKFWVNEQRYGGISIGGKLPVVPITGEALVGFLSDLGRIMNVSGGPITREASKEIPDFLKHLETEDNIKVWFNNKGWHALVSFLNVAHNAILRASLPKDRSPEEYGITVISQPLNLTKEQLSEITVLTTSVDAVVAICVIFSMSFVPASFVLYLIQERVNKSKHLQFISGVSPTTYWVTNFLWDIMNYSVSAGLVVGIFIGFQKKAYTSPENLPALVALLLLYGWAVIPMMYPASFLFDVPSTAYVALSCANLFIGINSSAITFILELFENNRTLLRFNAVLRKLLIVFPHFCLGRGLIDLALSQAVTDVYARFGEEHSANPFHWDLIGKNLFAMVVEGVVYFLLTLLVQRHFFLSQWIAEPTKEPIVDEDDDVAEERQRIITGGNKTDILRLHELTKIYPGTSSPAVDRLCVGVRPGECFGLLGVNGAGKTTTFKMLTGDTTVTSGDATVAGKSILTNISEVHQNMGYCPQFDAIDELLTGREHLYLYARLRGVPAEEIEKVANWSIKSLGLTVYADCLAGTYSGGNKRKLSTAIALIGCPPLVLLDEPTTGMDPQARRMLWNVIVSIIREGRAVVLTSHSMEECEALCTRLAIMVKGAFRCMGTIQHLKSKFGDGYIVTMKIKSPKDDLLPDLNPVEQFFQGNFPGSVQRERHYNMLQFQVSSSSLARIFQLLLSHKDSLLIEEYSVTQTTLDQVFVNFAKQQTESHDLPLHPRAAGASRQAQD

Row | SMILES | EC50 (ABCB4 WT) | EC50 (ABCA4 P1380L)
1 | Cc1cc(C)c(Oc2nc(-c3cncc(Cl)c3)ccc2S(=O)(=O)NC(c2ccccn2)C(F)(F)F)c(C)c1 (single isomer, unassigned) [Compound I-79] | ≥ 25 µM | < 25 µM
2 | Cc1cc(C)c(Oc2nc(-c3cncc(Cl)c3)ccc2S(=O)(=O)NC(c2ccccn2)C(F)(F)F)c(C)c1 (single isomer, unassigned) [Compound I-80] | ≥ 25 µM | > 25 µM
3 | Cc1cc(C)c(Oc2nc(-c3cncc(C(N)=O)c3)ccc2NS(C)(=O)=O)c(C2CC2)n1 [Compound I-1] | ≥ 25 µM | < 1 µM
4 | Cc1cc(C)c(Oc2nc(-c3cn[nH]c3)ccc2NS(C)(=O)=O)c(C2CC2)c1 [Compound I-2] | ≥ 25 µM | > 25 µM
5 | Cc1ccc(Oc2nc(-c3cncc(C#N)c3)ccc2NS(C)(=O)=O)c(C)n1 [Compound I-3] | < 1 µM | < 1 µM
6 | Cc1cc(C)c(Oc2nc(-c3cncc(Cl)c3)ccc2N(C2CC2)S(C)(=O)=O)c(C)c1 [Compound I-42] | ≥ 25 µM | 1 to 10 µM
7 | Cc1cc(C)c(Oc2nc(N3CC4(C3)CN(S(=O)(=O)C3CC3)C4)ccc2NS(C)(=O)=O)c(C)c1 [Compound I-43] | ≥ 25 µM | > 25 µM
8 | Cc1cc(C)c(Oc2nc(N3CCN(S(=O)(=O)C4CC4)CC3)ccc2NS(C)(=O)=O)c(C)c1 [Compound I-44] | ≥ 25 µM | 10 to 25 µM
9 | Cc1cc(C)c(Oc2nc(-c3ccc(C#N)nc3)ccc2NS(C)(=O)=O)c(C)c1 [Compound I-45] | ≥ 25 µM | < 1 µM
10 | Cc1cc(C)c(Oc2nc(-c3cncc(Cl)c3)ccc2NS(C)(=O)=O)c(C)n1 [Compound I-46] | < 25 µM | < 1 µM
11 | Cc1cc(C)c(Oc2nc(N3CCN(C(=O)C4CC4)CC3)ccc2NS(C)(=O)=O)c(C)c1 [Compound I-47] | < 1 µM | > 25 µM
12 | Cc1cc(C)c(Oc2nc(-c3cncc(Cl)c3)ccc2N(C)S(C)(=O)=O)c(C)c1 [Compound I-48] | < 1 µM | > 25 µM
13 | Cc1cc(C)c(Oc2nc(-c3cncc(Cl)c3)ccc2NS(=O)(=O)C2CC2)c(C)c1 [Compound I-49] | < 1 µM | > 25 µM
14 | CC(=O)NC1CN(c2ccc(NS(=O)(=O)c3cccnc3)c(Oc3c(C)cc(C)cc3C3CC3)n2)C1 [Compound I-50] | 1 to 10 µM | > 25 µM
15 | COC1CC(S(=O)(=O)Nc2ccc(-c3cncc(Cl)c3)nc2Oc2c(C)cc(C)cc2C)C1 (stereo not drawn) [Compound I-51] | < 1 µM | < 1 µM
16 | Cc1cc(C)c(Oc2nc(-c3cncc(Cl)c3)ccc2N(C)S(=O)(=O)c2cnn(C)c2)c(C2CC2)c1 [Compound I-52] | 1 to 10 µM | 1 to 10 µM
17 | Cc1cc(C)c(Oc2nc(-c3cncc(Cl)c3)ccc2N(C)S(=O)(=O)c2cccnc2)c(C2CC2)c1 [Compound I-53] | ≥ 25 µM | 1 to 10 µM
18 | Cc1cc(C)c(Oc2nc(-c3cncc(Cl)c3)ccc2NS(=O)(=O)c2cccnc2)c(C2CC2)c1 [Compound I-54] | ≥ 25 µM | < 25 µM
19 | Cc1cc(C)c(Oc2nc(-c3cncc(Cl)c3)ccc2NS(C)(=O)=O)c(C)c1 [Compound I-55] | ≥ 25 µM | > 25 µM
20 | Cc1cc(C)c(Oc2cc(-c3cncc(Cl)c3)ncc2NS(C)(=O)=O)c(C)c1 [Compound I-56] | ≥ 25 µM | > 25 µM
21 | Cc1cc(C)c(Oc2nc(-c3cncc(Cl)c3)ccc2NS(C)(=O)=O)c(C2CC2)c1 [Compound I-57] | < 25 µM | 1 to 10 µM
22 | Cc1cc(C)c(Oc2nc(-c3cncc(Cl)c3)ccc2NS(=O)(=O)c2cnn(C)c2)c(C2CC2)c1 [Compound I-58] | ≥ 25 µM | > 25 µM
23 | Cc1cc(C)c(Oc2cc(-c3cncc(Cl)c3)cnc2N(C)S(=O)(=O)c2cnn(C)c2)c(C)c1 [Compound I-59] | ≥ 25 µM | 1 to 10 µM
24 | Cc1cc(C)c(Oc2cc(-c3cncc(Cl)c3)cnc2NS(C)(=O)=O)c(C)c1 [Compound I-60] | ≥ 25 µM | < 25 µM
25 | Cc1cc(C)c(Oc2cc(-c3cncc(Cl)c3)cnc2NS(=O)(=O)c2cnn(C)c2)c(C)c1 [Compound I-61] | ≥ 25 µM | > 25 µM
26 | Cc1cc(C)c(Oc2nc(-c3cncc(Cl)c3)ccc2NS(=O)(=O)Cc2ccccn2)c(C)c1 [Compound I-62] | ≥ 25 µM | > 25 µM
27 | COc1ccc2nc[nH]c2c1S(=O)(=O)Nc1ccc(-c2cncc(Cl)c2)nc1Oc1c(C)cc(C)cc1C [Compound I-63] | ≥ 25 µM | 10 to 25 µM

Row | SMILES | EC50 (ABCB4 WT) | EC50 (ABCA4 P1380L)
28 | Cc1cc(C)c(Oc2nc(-c3cncc(Cl)c3)ccc2N(C)S(=O)(=O)Cc2ccccc2)c(C)c1 [Compound I-64] | < 25 µM | 1 to 10 µM
29 | Cc1cc(C)c(Oc2nc(-c3cncc(Cl)c3)ccc2NS(=O)(=O)Cc2ccccc2)c(C)c1 [Compound I-65] | ≥ 25 µM | > 25 µM
30 | Cc1cc(C)c(Oc2nc(-c3cncc(Cl)c3)ccc2N2CCCCS2(=O)=O)c(C)c1 [Compound I-66] | ≥ 25 µM | > 25 µM
31 | Cc1cc(C)c(Oc2nc(-c3cncc(Cl)c3)ccc2N2CCCS2(=O)=O)c(C)c1 [Compound I-67] | 1 to 10 µM | > 25 µM
32 | Cc1cc(C)c(Oc2nc(-c3cncc(Cl)c3)ccc2NS(=O)(=O)C(C)(C)C)c(C)c1 [Compound I-68] | ≥ 25 µM | > 25 µM
33 | Cc1cc(C)c(Oc2nc(-c3cncc(Cl)c3)ccc2N(C)S(=O)(=O)c2cccnc2)c(C)c1 [Compound I-69] | < 25 µM | 1 to 10 µM
34 | Cc1cc(C)c(Oc2nc(-c3cncc(Cl)c3)ccc2N(C)S(=O)(=O)c2cnn(C)c2)c(C)c1 [Compound I-70] | ≥ 25 µM | > 25 µM
35 | Cc1cc(C)c(Oc2nc(-c3cncc(Cl)c3)ccc2NS(=O)(=O)c2cccnc2)c(C)c1 [Compound I-71] | ≥ 25 µM | > 25 µM
36 | Cc1cc(C)c(Oc2nc(-c3cncc(Cl)c3)ccc2NS(=O)(=O)c2cnn(C)c2)c(C)c1 [Compound I-72] | ≥ 25 µM | > 25 µM
37 | CNS(=O)(=O)c1ccc(N2CCN(C(=O)C3CC3)CC2)nc1Oc1c(C)cc(C)cc1C [Compound I-73] | < 1 µM | < 1 µM
38 | COC1CC(NS(=O)(=O)c2ccc(-c3cncc(Cl)c3)nc2Oc2c(C)cc(C)cc2C2CC2)C1 (stereo not drawn) [Compound I-74] | 1 to 10 µM | 1 to 10 µM
39 | Cc1cc(C)c(Oc2nc(-c3cncc(Cl)c3)ccc2S(=O)(=O)Nc2cnn(C)c2)c(C2CC2)c1 [Compound I-75] | 1 to 10 µM | 1 to 10 µM
40 | Cc1cc(C)c(Oc2nc(-c3cncc(Cl)c3)ccc2S(=O)(=O)NCc2ccccn2)c(C2CC2)c1 [Compound I-76] | 1 to 10 µM | > 25 µM
41 | CNS(=O)(=O)c1ccc(-c2cncc(Cl)c2)nc1Oc1c(C)cc(C)cc1C1CC1 [Compound I-77] | 1 to 10 µM | < 25 µM
42 | COC1CC(NS(=O)(=O)c2ccc(-c3cncc(Cl)c3)nc2Oc2c(C)cc(C)cc2C)C1 (stereo not drawn) [Compound I-78] | < 25 µM | 1 to 10 µM
43 | Cc1cc(C)c(Oc2nc(-c3cncc(Cl)c3)ccc2S(=O)(=O)N[C@H](c2ccccc2)C(F)(F)F)c(C)c1 [Compound I-81] | < 25 µM | 1 to 10 µM
44 | Cc1cc(C)c(Oc2nc(-c3cncc(Cl)c3)ccc2S(=O)(=O)N[C@@H](c2ccccc2)C(F)(F)F)c(C)c1 [Compound I-83] | ≥ 25 µM | 1 to 10 µM
45 | CNS(=O)(=O)c1cnc(-c2cncc(Cl)c2)cc1Oc1c(C)cc(C)cc1C [Compound I-84] | ≥ 25 µM | < 25 µM
46 | Cc1cc(C)c(Oc2nc(-c3cncc(Cl)c3)ccc2S(=O)(=O)N(C)Cc2ccccc2)c(C)c1 [Compound I-85] | < 25 µM | > 25 µM
47 | Cc1cc(C)c(Oc2nc(-c3cncc(Cl)c3)ccc2S(=O)(=O)NCc2ccccn2)c(C)c1 [Compound I-86] | 1 to 10 µM | < 25 µM
48 | Cc1cc(C)c(Oc2nc(-c3cncc(Cl)c3)ccc2S(=O)(=O)NCc2cc(C(F)(F)F)ccn2)c(C)c1 [Compound I-87] | 1 to 10 µM | > 25 µM
49 | Cc1cc(C)c(Oc2nc(-c3cncc(Cl)c3)ccc2S(=O)(=O)NCc2ccccc2)c(C)c1 [Compound I-88] | < 25 µM | 1 to 10 µM
50 | CNS(=O)(=O)c1ncc(-c2cncc(Cl)c2)nc1Oc1c(C)cc(C)c(Cl)c1C [Compound I-89] | 1 to 10 µM | > 25 µM
51 | Cc1cc(C)c(Oc2nc(-c3cncc(Cl)c3)cnc2S(N)(=O)=O)c(C)c1Cl [Compound I-90] | 1 to 10 µM | 1 to 10 µM
52 | CNS(=O)(=O)c1ccc(N2CCN(C)C(=O)C2)nc1Oc1c(C)cc(C)cc1C [Compound I-92] | ≥ 25 µM | > 25 µM
53 | Cc1cc(C)c(Oc2nc(-c3cncc(Cl)c3)ncc2S(N)(=O)=O)c(C)c1Cl [Compound I-93] | ≥ 25 µM | 1 to 10 µM
54 | Cc1cc(C)c(Oc2nc(-c3cncc(Cl)c3)ccc2S(=O)(=O)Nc2cnn(C)c2)c(C)c1 [Compound I-94] | 1 to 10 µM | 1 to 10 µM
